Measurements reported in patent US10597388B2, “Pyridazinone herbicides” (FMC CORPORATION, priority 2014, dated 2020).

Experiments:
Assay type in all cases: in vivo
[1] = tested on: crabgrass, Brazilian (Brazilian crabgrass, Digitaria horizontalis); test: Test E greenhouse herbicide test, pre- and postemergence
Summary of the method: (§1)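 Herbicidal effect was judged by eye relative to untreated plants 14 to 21 d after spraying, using 0 for no effect and 100 for complete control. Preemergence sprays went onto freshly seeded silt loam; postemergence sprays onto 2–18 cm seedlings.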

[2] = tested on: nutsedge, yellow (yellow nutsedge, Cyperus esculentus); test: as above; conditions: Preemergence
Summary of the method: as §1

[3] = tested on: field bindweed (Convolvulus arvensis); test: as above
Summary of the method: as §1

[4] = tested on: waterhemp (common waterhemp, Amaranthus rudis); test: as above
Summary of the method: as §1

kochia (Kochia scoparia) = test: as above
Summary of the method: as §1

[5] = tested on: johnsongrass (Sorghum halepense); test: as above; conditions: Preemergence
Summary of the method: as §1

[6] = tested on: foxtail, green (green foxtail, Setaria viridis); test: as above; conditions: Preemergence
Summary of the method: as §1

[7] = tested on: beggarticks (hairy beggarticks, Bidens pilosa); test: as above
Summary of the method: as §1

[8] = tested on: Italian ryegrass (Lolium multiflorum); test: as above
Summary of the method: as §1

[9] = tested on: oilseed rape (Brassica napus); test: Test D controlled growth environment herbicide test, pre- and postemergence
Summary of the method: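 Rating is visual, 0–100 scale (100 = complete control), made against untreated plants 14–21 d after treatment in controlled growth conditions. Postemergence sprays went onto 1- to 4-leaf plants in peat medium; preemergence sprays onto silt loam after sowing; formulation included a surfactant.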

[10] = 62 g ai/ha, Preemergence, scale 0 to 100 (0 no effect, 100 complete control)
[11] = 125 g ai/ha, Postemergence, scale 0 to 100 (0 no effect, 100 complete control)
[12] = 250 g ai/ha, Postemergence, scale 0 to 100 (0 no effect, 100 complete control)
[13] = Preemergence, 31 g ai/ha, scale 0 to 100, 0 no effect, 100 complete control
[14] = Preemergence, 125 g ai/ha, visual, scale 0 no effect to 100 complete control
[15] = Preemergence, 250 g ai/ha, visual, scale 0 no effect to 100 complete control
[16] = 62 g ai/ha, scale 0 to 100 (0 no effect, 100 complete control)
[17] = 125 g ai/ha, scale 0 to 100 (0 no effect, 100 complete control)
[18] = 31 g ai/ha, scale 0 to 100, 0 no effect, 100 complete control
[19] = 250 g ai/ha, visual, scale 0 no effect to 100 complete control
[20] = 125 g ai/ha, Preemergence, scale 0 to 100 (0 no effect, 100 complete control)
[21] = 125 g ai/ha, visual, scale 0 no effect to 100 complete control
[22] = Postemergence, 31 g ai/ha, scale 0 to 100 (0 no effect, 100 complete control)
[23] = Postemergence, 125 g ai/ha, visual rating on scale 0 (no effect) to 100 (complete control), 14 to 21 d
[24] = Postemergence, 250 g ai/ha, scale 0 to 100 (0 no effect, 100 complete control)
[25] = Preemergence, 125 g ai/ha, scale 0 to 100 (0 no effect, 100 complete control)
[26] = Preemergence, 250 g ai/ha, scale 0 to 100 (0 no effect, 100 complete control)
[27] = postemergence, 62 g ai/ha, scale 0 to 100, 0 no effect, 100 complete control
[28] = 62 g ai/ha, Postemergence, scale 0 to 100 (0 no effect, 100 complete control)
[29] = Postemergence, 31 g ai/ha, visual, scale 0 no effect to 100 complete control

In the case of `CCC(=O)Oc1c(C)nn(C)c(=O)c1-c1c(C)sc2c(C)cc(C)cc12` [Compound 28], the “Plant response rating, Crabgrass, Brazil” value [1, 10] is reported as 70, the “Plant response rating, Crabgrass, Brazil” value [1, 11] is reported as 50 and the “Plant response rating, Crabgrass, Brazil” value [1, 12] is reported as 60. The “Plant response rating, Crabgrass, Brazil” value [1, 13] was 70, the “Plant response rating, Crabgrass, Brazil” value [1, 14] was 80 and the “Plant response rating, Crabgrass, Brazil” value [1, 15] was 90. The “Plant response rating, Nutsedge, Yellow” value [2, 16] was 20, the “Plant response rating, Nutsedge, Yellow” value [2, 17] was 70 and the “Plant response rating, Nutsedge, Yellow” value [2, 18] was 20. The “Plant response rating, Nutsedge, Yellow” value [2, 19] was 95, the “Plant response rating, Field Bindweed” value [3, 10] was 0 and the “Plant response rating, Field Bindweed” value [3, 11] was 60. For the same molecule, the “Plant response rating, Field Bindweed” value [3, 12] was 80, the “Plant response rating, Field Bindweed” value [3, 13] was 0 and the “Plant response rating, Field Bindweed” value [3, 14] was 90. For the same molecule, the “Plant response rating, Field Bindweed” value [3, 15] was 75, the “Plant response rating, Waterhemp” value [4, 10] was 80 and the “Plant response rating, Waterhemp” value [4, 11] was 70. For the same molecule, the “Plant response rating, Waterhemp” value [4, 20] was 98, the “Plant response rating, Waterhemp” value [4, 12] was 75 and the “Plant response rating, Waterhemp” value [4, 13] was 65. For the same molecule, the “Plant response rating, Waterhemp” value [4, 15] was 100, the “Plant response rating, Kochia” value (kochia (Kochia scoparia); [10]) was 0 and the “Plant response rating, Kochia” value (kochia (Kochia scoparia); [11]) was 75. The “Plant response rating, Kochia” value (kochia (Kochia scoparia); [12]) was 90, the “Plant response rating, Kochia” value (kochia (Kochia scoparia); [13]) was 0 and the “Plant response rating, Kochia” value (kochia (Kochia scoparia); [14]) was 60. The “Plant response rating, Kochia” value (kochia (Kochia scoparia); [15]) was 100, the “Plant response rating, Johnsongrass” value [5, 16] was 80 and the “Plant response rating, Johnsongrass” value [5, 18] was 70. For the same molecule, the “Plant response rating, Johnsongrass” value [5, 21] was 80, the “Plant response rating, Johnsongrass” value [5, 19] was 90 and the “Plant response rating, Foxtail, Green” value [6, 16] was 98. The “Plant response rating, Foxtail, Green” value [6, 18] was 65, the “Plant response rating, Foxtail, Green” value [6, 21] was 100 and the “Plant response rating, Foxtail, Green” value [6, 19] was 100. The “Plant response rating, Beggarticks” value [7, 10] was 100, the “Plant response rating, Beggarticks” value [7, 11] was 100 and the “Plant response rating, Beggarticks” value [7, 12] was 100. For the same molecule, the “Plant response rating, Beggarticks” value [7, 13] was 100, the “Plant response rating, Beggarticks” value [7, 14] was 100 and the “Plant response rating, Beggarticks” value [7, 15] was 100. For the same molecule, the “Plant response rating, Ryegrass, Italian” value [8, 10] was 80, the “Plant response rating, Ryegrass, Italian” value [8, 11] was 75 and the “Plant response rating, Ryegrass, Italian” value [8, 20] was 95. The “Plant response rating, Ryegrass, Italian” value [8, 12] was 75, the “Plant response rating, Ryegrass, Italian” value [8, 13] was 70 and the “Plant response rating, Ryegrass, Italian” value [8, 15] was 100. The “Oilseed Rape plant response rating” value [9, 22] was 65, the “Plant response rating, Oilseed Rape” value [9, 23] was 65 and the “Plant response rating, Oilseed Rape” value [9, 24] was 85. The “Plant response rating (scale of 0 to 100), Oilseed Rape” value ([9]; Preemergence, 31 g ai/ha) was 0, the “Plant response rating, Oilseed Rape” value ([9]; Preemergence, 62 g ai/ha, scale 0 to 100 (0 no effect, 100 complete control)) was 0 and the “Plant response rating, Oilseed Rape” value [9, 25] was 10. The “Plant response rating, Oilseed Rape” value [9, 26] was 25 and the “Plant response rating, Oilseed Rape” value [9, 27] was 65.

`Cc1cc(C)c2sc(C)c(-c3c(OC(=O)OCCCl)c(C)nn(C)c3=O)c2c1` [Compound 85] was tested, and the “Plant response rating, Crabgrass, Brazil” value [1, 28] was 30, the “Plant response rating, Crabgrass, Brazil” value [1, 10] was 50 and the “Plant response rating, Crabgrass, Brazil” value [1, 11] was 50. The “Plant response rating, Crabgrass, Brazil” value [1, 20] was 80, the “Plant response rating, Crabgrass, Brazil” value [1, 12] was 50 and the “Plant response rating, Crabgrass, Brazil” value [1, 29] was 15. The “Plant response rating, Crabgrass, Brazil” value [1, 13] was 10, the “Plant response rating, Crabgrass, Brazil” value [1, 15] was 90 and the “Plant response rating, Nutsedge, Yellow” value [2, 16] was 35. The “Plant response rating, Nutsedge, Yellow” value [2, 17] was 35, the “Plant response rating, Nutsedge, Yellow” value [2, 19] was 65 and the “Plant response rating, Field Bindweed” value [3, 28] was 50. The “Plant response rating, Field Bindweed” value [3, 10] was 5, the “Plant response rating, Field Bindweed” value [3, 11] was 60 and the “Plant response rating, Field Bindweed” value [3, 20] was 20. For the same molecule, the “Plant response rating, Field Bindweed” value [3, 12] was 90, the “Plant response rating, Field Bindweed” value [3, 29] was 50 and the “Plant response rating, Field Bindweed” value [3, 15] was 95. For the same molecule, the “Plant response rating, Waterhemp” value [4, 10] was 80, the “Plant response rating, Waterhemp” value [4, 11] was 65 and the “Plant response rating, Waterhemp” value [4, 20] was 70. The “Plant response rating, Waterhemp” value [4, 12] was 90, the “Plant response rating, Waterhemp” value [4, 29] was 50 and the “Plant response rating, Waterhemp” value [4, 13] was 35. The “Plant response rating, Waterhemp” value [4, 15] was 85, the “Plant response rating, Kochia” value (kochia (Kochia scoparia); [28]) was 70 and the “Plant response rating, Kochia” value (kochia (Kochia scoparia); [10]) was 0. For the same molecule, the “Plant response rating, Kochia” value (kochia (Kochia scoparia); [11]) was 80, the “Plant response rating, Kochia” value (kochia (Kochia scoparia); [20]) was 0 and the “Plant response rating, Kochia” value (kochia (Kochia scoparia); [12]) was 80. The “Plant response rating, Kochia” value (kochia (Kochia scoparia); [29]) was 60, the “Plant response rating, Kochia” value (kochia (Kochia scoparia); [13]) was 0 and the “Plant response rating, Kochia” value (kochia (Kochia scoparia); [15]) was 98. The “Plant response rating, Johnsongrass” value [5, 16] was 0, the “Plant response rating, Johnsongrass” value [5, 17] was 0 and the “Plant response rating, Johnsongrass” value [5, 18] was 0. The “Plant response rating, Johnsongrass” value [5, 19] was 0, the “Plant response rating, Foxtail, Green” value [6, 16] was 25 and the “Plant response rating, Foxtail, Green” value [6, 17] was 15. The “Plant response rating, Foxtail, Green” value [6, 18] was 0, the “Plant response rating, Foxtail, Green” value [6, 19] was 100 and the “Plant response rating, Beggarticks” value [7, 28] was 100. The “Plant response rating, Beggarticks” value [7, 10] was 100, the “Plant response rating, Beggarticks” value [7, 11] was 100 and the “Plant response rating, Beggarticks” value [7, 20] was 100. For the same molecule, the “Plant response rating, Beggarticks” value [7, 12] was 100, the “Plant response rating, Beggarticks” value [7, 29] was 90 and the “Plant response rating, Beggarticks” value [7, 13] was 90. The “Plant response rating, Beggarticks” value [7, 15] was 100, the “Plant response rating, Ryegrass, Italian” value [8, 28] was 60 and the “Plant response rating, Ryegrass, Italian” value [8, 10] was 80. For the same molecule, the “Plant response rating, Ryegrass, Italian” value [8, 11] was 75, the “Plant response rating, Ryegrass, Italian” value [8, 20] was 95 and the “Plant response rating, Ryegrass, Italian” value [8, 12] was 80. The “Plant response rating, Ryegrass, Italian” value [8, 29] was 50, the “Plant response rating, Ryegrass, Italian” value [8, 13] was 80 and the “Plant response rating, Ryegrass, Italian” value [8, 15] was 100. For the same molecule, the “Oilseed Rape plant response rating” value [9, 22] was 65, the “Plant response rating, Oilseed Rape” value [9, 23] was 70 and the “Plant response rating, Oilseed Rape” value [9, 24] was 80. For the same molecule, the “Plant response rating (scale of 0 to 100), Oilseed Rape” value ([9]; Preemergence, 31 g ai/ha) was 0, the “Plant response rating (scale of 0 to 100), Oilseed Rape” value ([9]; Preemergence, 62 g ai/ha) was 0 and the “Plant response rating, Oilseed Rape” value [9, 25] was 20. The “Plant response rating, Oilseed Rape” value [9, 26] was 30 and the “Plant response rating, Oilseed Rape” value [9, 27] was 70.
